Test system: human sense of taste
Test: Sweetness measured by human sense of taste (20 trained subjects, minimum concentration at which sweetness is first sensed)
Type: in vivo
Settings: for Multiples of increased sweetness to minor-type brazzein: relative to minor-type brazzein; for Sweetness ratios of sucrose (1 g/100 ml) to brazzein multi-variants / Sweetness ratios of sucrose (1 g/100 ml) to primary brazzein variants (minor-type brazzein: 2000): relative to 1 g/100 ml sucrose threshold; for Minimum stimulation level in which one senses sweetness for first time: 20 trained subjects
Description: Since the recombinant brazzein according to the present invention is not a sucrose-based compound having a cyclic ring, the sweetness of the recombinant brazzein was not measured using a saccharometer. Therefore, the activity of the recombinant brazzein was measured using the human sense of taste. Sugar content measurement was performed on 20 subjects who were trained to feel substantially the same minimum concentration of sucrose in which they could sense sweetness using a sucrose solution. That is, a concentration of each brazzein variant in which the subjects could sense sweetness for the first time was measured. Also, a sweetness ratio of the sucrose solution to the wild-type brazzein was 1 g/100 ml, which was a minimum stimulation level in which the subjects could sense sweetness. Also, a sweetness ratio of the minor-type brazzein protein to the wild-type brazzein was 500 μg/100 ml, which was a minimum stimulation level in which the subjects could sense sweetness. Therefore, the sweetness was calculated using the sweetness ratios (That is, 1/0.0005=2000 for the minor-type brazzein).
Also, the brazzein multi-variants were measured for activity (sweetness) in the same manner as in Example 3-1.

Row | Substance | Multiples of increased sweetness to minor-type brazzein (brazzein multi-variants) | Sweetness ratios of sucrose (1 g/100 ml) to brazzein multi-variants | Multiples of increased sweetness to minor-type brazzein (primary brazzein variants) | Minimum stimulation level in which one senses sweetness for first time (primary brazzein variants) | Sweetness ratios of sucrose (1 g/100 ml) to primary brazzein variants (minor-type brazzein: 2000)
1 | H30R_E40A: secondary brazzein variant of minor-type brazzein with substitutions H30R and E40A (DKCKKVYENYPVSKCQLANQCNYDCKLRKRAKSGECFYDAKRNLQCICDYCEY; Brazzein(H30R_E40A)) [Brazzein H30R_E40A] | 4 | 8,000 | – | – | –
2 | E35D_E40K: secondary brazzein variant of minor-type brazzein with substitutions E35D and E40K (DKCKKVYENYPVSKCQLANQCNYDCKLRKHAKSGDCFYDKKRNLQCICDYCEY; Brazzein(E35D_E40K)) [Brazzein E35D_E40K] | 4 | 8,000 | – | – | –
3 | R32D: primary brazzein variant: Arg at position 32 of minor-type brazzein substituted with Asp (DKCKKVYENYPVSKCQLANQCNYDCKLRKHADSGECFYDEKRNLQCICDYCEY; Brazzein(R32D)) [Brazzein R32D] | – | – | 0.05 | 10,000 μg/100 ml | 100
4 | R32A: primary brazzein variant: Arg at position 32 of minor-type brazzein substituted with Ala (DKCKKVYENYPVSKCQLANQCNYDCKLRKHAASGECFYDEKRNLQCICDYCEY; Brazzein(R32A)) [Brazzein R32A] | – | – | 0.08 | 6,000 μg/100 ml | 167
5 | H30K: primary brazzein variant: His at position 30 of minor-type brazzein substituted with Lys (DKCKKVYENYPVSKCQLANQCNYDCKLRKKARSGECFYDEKRNLQCICDYCEY; Brazzein(H30K)) [Brazzein H30K] | – | – | 2 | 250 μg/100 ml | 4,000
6 | K5A: primary brazzein variant: Lys at position 5 of minor-type brazzein substituted with Ala (DKCKAVYENYPVSKCQLANQCNYDCKLRKHARSGECFYDEKRNLQCICDYCEY; Brazzein(K5A)) [Brazzein K5A] | – | – | 0.08 | 6,000 μg/100 ml | 167
7 | R42K: primary brazzein variant: Arg at position 42 of minor-type brazzein substituted with Lys (DKCKKVYENYPVSKCQLANQCNYDCKLRKHARSGECFYDEKKNLQCICDYCEY; Brazzein(R42K)) [Brazzein R42K] | – | – | 0.16 | 3,000 μg/100 ml | 334
8 | K29H: primary brazzein variant: Lys at position 29 of minor-type brazzein substituted with His (DKCKKVYENYPVSKCQLANQCNYDCKLRHHARSGECFYDEKRNLQCICDYCEY; Brazzein(K29H)) [Brazzein K29H] | – | – | 0.05 | 10,000 μg/100 ml | 100
9 | R32K: primary brazzein variant: Arg at position 32 of minor-type brazzein substituted with Lys (DKCKKVYENYPVSKCQLANQCNYDCKLRKHAKSGECFYDEKRNLQCICDYCEY; Brazzein(R32K)) [Brazzein R32K] | – | – | 0.16 | 3,000 μg/100 ml | 334
10 | K5H: primary brazzein variant: Lys at position 5 of minor-type brazzein substituted with His (DKCKHVYENYPVSKCQLANQCNYDCKLRKHARSGECFYDEKRNLQCICDYCEY; Brazzein(K5H)) [Brazzein K5H] | – | – | 0.05 | 10,000 μg/100 ml | 100
11 | R32H: primary brazzein variant: Arg at position 32 of minor-type brazzein substituted with His (DKCKKVYENYPVSKCQLANQCNYDCKLRKHAHSGECFYDEKRNLQCICDYCEY; Brazzein(R32H)) [Brazzein R32H] | – | – | 0.16 | 3,000 μg/100 ml | 334
12 | E35A: primary brazzein variant: Glu at position 35 of minor-type brazzein substituted with Ala (DKCKKVYENYPVSKCQLANQCNYDCKLRKHARSGACFYDEKRNLQCICDYCEY; Brazzein(E35A)) [Brazzein E35A] | – | – | 0.05 | 10,000 μg/100 ml | 100
13 | E35D_E40A: secondary brazzein variant of minor-type brazzein with substitutions E35D and E40A (DKCKKVYENYPVSKCQLANQCNYDCKLRKHAKSGDCFYDAKRNLQCICDYCEY; Brazzein(E35D_E40A)) [Brazzein E35D_E40A] | 5 | 10,000 | – | – | –
14 | K5R: primary brazzein variant: Lys at position 5 of minor-type brazzein substituted with Arg (DKCKRVYENYPVSKCQLANQCNYDCKLRKHARSGECFYDEKRNLQCICDYCEY; Brazzein(K5R)) [Brazzein K5R] | – | – | 0.05 | 10,000 μg/100 ml | 100
15 | H30A: primary brazzein variant: His at position 30 of minor-type brazzein substituted with Ala (DKCKKVYENYPVSKCQLANQCNYDCKLRKAARSGECFYDEKRNLQCICDYCEY; Brazzein(H30A)) [Brazzein H30A] | – | – | 0.08 | 6,000 μg/100 ml | 167
16 | H30R_E40R: secondary brazzein variant of minor-type brazzein with substitutions H30R and E40R (DKCKKVYENYPVSKCQLANQCNYDCKLRKRAKSGECFYDRKRNLQCICDYCEY; Brazzein(H30R_E40R)) [Brazzein H30R_E40R] | 5 | 10,000 | – | – | –
17 | H30E: primary brazzein variant: His at position 30 of minor-type brazzein substituted with Glu (DKCKKVYENYPVSKCQLANQCNYDCKLRKEARSGECFYDEKRNLQCICDYCEY; Brazzein(H30E)) [Brazzein H30E] | – | – | 0.16 | 3,000 μg/100 ml | 334
18 | K5D: primary brazzein variant: Lys at position 5 of minor-type brazzein substituted with Asp (DKCKDVYENYPVSKCQLANQCNYDCKLRKHARSGECFYDEKRNLQCICDYCEY; Brazzein(K5D)) [Brazzein K5D] | – | – | 0.08 | 6,000 μg/100 ml | 167
19 | H30R_E40K: secondary brazzein variant of minor-type brazzein with substitutions H30R and E40K (DKCKKVYENYPVSKCQLANQCNYDCKLRKRAKSGECFYDKKRNLQCICDYCEY; Brazzein(H30R_E40K)) [Brazzein H30R_E40K] | 5 | 10,000 | – | – | –
20 | K29R: primary brazzein variant: Lys at position 29 of minor-type brazzein substituted with Arg (DKCKKVYENYPVSKCQLANQCNYDCKLRRHARSGECFYDEKRNLQCICDYCEY; Brazzein(K29R)) [Brazzein K29R] | – | – | 0.05 | 10,000 μg/100 ml | 100
21 | E35K: primary brazzein variant: Glu at position 35 of minor-type brazzein substituted with Lys (DKCKKVYENYPVSKCQLANQCNYDCKLRKHARSGKCFYDEKRNLQCICDYCEY; Brazzein(E35K)) [Brazzein E35K] | – | – | 0.08 | 6,000 μg/100 ml | 167

Reference: patent US8592181B2, “Brazzein variant having higher sweetness and method for preparing multi-variant” (Chung-Ang University Industry-Academy Cooperation Foundation, priority 2009, dated 2013)
